These results are taken from ChEMBL document CHEMBL1641395, “Highly brominated antimicrobial metabolites from a marine Pseudoalteromonas sp” (J Nat Prod, 2010).

The test system of this experiment is Staphylococcus aureus. The experiment in a line: Antibacterial activity against methicillin-resistant Staphylococcus aureus ATCC 43300 after 12 hrs by Broth microdilution method. The following applies: ATCC 43300, 12 h. The format is functional, organism-based. In general terms: Broth dilution looks for growth in wells or tubes with falling amounts of substance.
For `Brc1cc(Br)c2oc3c(Br)c(Br)[nH]c3c2c1`, 1930 nM corresponded to half-maximal inhibition (IC50).

In turn, `Oc1ccc(Br)cc1-c1cc(Br)cc(Br)c1O` returned a half-maximal inhibitory concentration (IC50) of 2190 nM.

For `Oc1c(Br)cc(Br)cc1-c1cc(Br)cc(Br)c1O` [BROMOPHENE], the midpoint of inhibition, the IC50, lay at 2140 nM.

The molecule `Oc1c(Br)cc(Br)cc1-c1[nH]c(Br)c(Br)c1Br` [PENTABROMOPSEUDILIN] came in with an IC50 of 100 nM.

For `CN[C@H](CC(C)C)C(=O)N[C@H]1C(=O)N[C@@H](CC(N)=O)C(=O)N[C@H]2C(=O)N[C@H]3C(=O)N[C@H](C(=O)N[C@H](C(=O)O)c4cc(O)cc(O)c4-c4cc3ccc4O)[C@H](O)c3ccc(c(Cl)c3)Oc3cc2cc(c3O[C@@H]2O[C@H](CO)[C@@H](O)[C@H](O)[C@H]2O[C@H]2C[C@](C)(N)[C@H](O)[C@H](C)O2)Oc2ccc(cc2Cl)[C@H]1O` [VANCOMYCIN], the half-inhibitory concentration (IC50) is 910 nM.

The term IC50 denotes the concentration that inhibits the measured activity by half. Low values mean greater potency, high ones weaker potency.
